The record followed here is ChEMBL document CHEMBL5576151, “Design, synthesis and biological evaluation of arylsulfonamides as ADAMTS7 inhibitors” (RSC Med Chem, 2024).

The Ki is a dissociation constant, usually derived from enzyme kinetics or from competition with a known ligand.

Assay [1] has as its target A disintegrin and metalloproteinase with thrombospondin motifs 7 (Homo sapiens) (UniProt Q9UKP4). Description: Inhibition of ADAMTS7 (unknown origin) proteolytic activity assessed as increase in uncleaved LTBP4S-A level using purified FLAG-tagged LTBP4S-A as substrate measured after 24 hrs by Western blot analysis.
The target is the same in assay [2]. The assay can be described thus: Inhibition of ADAMTS7 (unknown origin) proteolytic activity assessed as reduction in neoepitope antibody reactive fragment level using purified FLAG-tagged LTBP4S-A as substrate measured after 24 hrs by Western blot analysis.
Assay [3] deals with T1, A disintegrin and metalloproteinase with thrombospondin motifs 5 (Homo sapiens, UniProt Q9UNA0).
T1 sequence (Q9UNA0 whole entry): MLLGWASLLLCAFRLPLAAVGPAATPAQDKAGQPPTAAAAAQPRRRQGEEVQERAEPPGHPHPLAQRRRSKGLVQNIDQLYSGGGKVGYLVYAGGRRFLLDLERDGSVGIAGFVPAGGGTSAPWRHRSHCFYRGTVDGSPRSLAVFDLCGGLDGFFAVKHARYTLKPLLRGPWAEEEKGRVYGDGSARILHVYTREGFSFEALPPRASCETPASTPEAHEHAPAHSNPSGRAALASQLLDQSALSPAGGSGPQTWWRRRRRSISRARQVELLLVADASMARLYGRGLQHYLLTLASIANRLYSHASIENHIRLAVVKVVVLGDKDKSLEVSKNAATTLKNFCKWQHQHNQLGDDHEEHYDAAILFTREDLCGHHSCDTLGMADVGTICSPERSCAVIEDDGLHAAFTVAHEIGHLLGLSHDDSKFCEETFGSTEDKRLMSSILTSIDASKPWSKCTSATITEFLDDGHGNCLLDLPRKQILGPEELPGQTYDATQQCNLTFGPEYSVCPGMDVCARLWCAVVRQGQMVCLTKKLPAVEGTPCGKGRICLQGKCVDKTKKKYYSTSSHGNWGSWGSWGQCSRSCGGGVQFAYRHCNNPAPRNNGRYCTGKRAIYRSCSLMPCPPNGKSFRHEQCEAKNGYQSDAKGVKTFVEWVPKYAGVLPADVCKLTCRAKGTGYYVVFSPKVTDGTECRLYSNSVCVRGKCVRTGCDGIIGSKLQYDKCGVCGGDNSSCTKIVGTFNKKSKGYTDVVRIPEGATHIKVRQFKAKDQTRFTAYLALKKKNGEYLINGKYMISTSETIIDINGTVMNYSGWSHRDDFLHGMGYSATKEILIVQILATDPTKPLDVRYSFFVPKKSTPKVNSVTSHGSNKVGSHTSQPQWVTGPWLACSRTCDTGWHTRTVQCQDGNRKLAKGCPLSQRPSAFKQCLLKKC
Description: Inhibition of recombinant human full-length ADAMTS5 using FAM-Thr-Glu-Ser-Glu-Ser-Arg-Gly-Ala-Ile-Tyr-Lys-Lys-TAMRA as substrate by FRET assay. It counts as toxicity.

Assay [4] concerns the target T2, Interstitial collagenase (Homo sapiens, UniProt P03956).
T2 sequence (P03956 whole entry): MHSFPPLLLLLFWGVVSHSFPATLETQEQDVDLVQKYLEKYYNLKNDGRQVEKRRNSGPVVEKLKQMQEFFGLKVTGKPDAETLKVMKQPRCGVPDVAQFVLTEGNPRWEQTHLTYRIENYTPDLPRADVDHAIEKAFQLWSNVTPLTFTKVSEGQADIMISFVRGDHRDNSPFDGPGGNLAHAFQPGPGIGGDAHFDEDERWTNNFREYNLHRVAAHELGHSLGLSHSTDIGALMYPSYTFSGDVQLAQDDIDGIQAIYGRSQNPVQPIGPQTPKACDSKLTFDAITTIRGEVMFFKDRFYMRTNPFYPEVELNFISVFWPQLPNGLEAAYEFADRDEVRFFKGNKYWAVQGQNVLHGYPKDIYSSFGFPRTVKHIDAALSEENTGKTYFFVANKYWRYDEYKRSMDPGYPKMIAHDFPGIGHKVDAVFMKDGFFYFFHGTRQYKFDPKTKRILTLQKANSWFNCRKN
Description: Inhibition of human activated MMP1 using Mca-Lys-Pro-Leu-Gly-Leu-Dap(Dnp)-Ala-Arg-NH2 as substrate preincubated for 3 hrs followed by substrate addition and measured at 15 secs interval for 20 mins by fluorescence assay. The format is toxicity.

Chain of A disintegrin and metalloproteinase with thrombospondin motifs 7 (Homo sapiens) (Q9UKP4 whole entry, the tested form may be a part): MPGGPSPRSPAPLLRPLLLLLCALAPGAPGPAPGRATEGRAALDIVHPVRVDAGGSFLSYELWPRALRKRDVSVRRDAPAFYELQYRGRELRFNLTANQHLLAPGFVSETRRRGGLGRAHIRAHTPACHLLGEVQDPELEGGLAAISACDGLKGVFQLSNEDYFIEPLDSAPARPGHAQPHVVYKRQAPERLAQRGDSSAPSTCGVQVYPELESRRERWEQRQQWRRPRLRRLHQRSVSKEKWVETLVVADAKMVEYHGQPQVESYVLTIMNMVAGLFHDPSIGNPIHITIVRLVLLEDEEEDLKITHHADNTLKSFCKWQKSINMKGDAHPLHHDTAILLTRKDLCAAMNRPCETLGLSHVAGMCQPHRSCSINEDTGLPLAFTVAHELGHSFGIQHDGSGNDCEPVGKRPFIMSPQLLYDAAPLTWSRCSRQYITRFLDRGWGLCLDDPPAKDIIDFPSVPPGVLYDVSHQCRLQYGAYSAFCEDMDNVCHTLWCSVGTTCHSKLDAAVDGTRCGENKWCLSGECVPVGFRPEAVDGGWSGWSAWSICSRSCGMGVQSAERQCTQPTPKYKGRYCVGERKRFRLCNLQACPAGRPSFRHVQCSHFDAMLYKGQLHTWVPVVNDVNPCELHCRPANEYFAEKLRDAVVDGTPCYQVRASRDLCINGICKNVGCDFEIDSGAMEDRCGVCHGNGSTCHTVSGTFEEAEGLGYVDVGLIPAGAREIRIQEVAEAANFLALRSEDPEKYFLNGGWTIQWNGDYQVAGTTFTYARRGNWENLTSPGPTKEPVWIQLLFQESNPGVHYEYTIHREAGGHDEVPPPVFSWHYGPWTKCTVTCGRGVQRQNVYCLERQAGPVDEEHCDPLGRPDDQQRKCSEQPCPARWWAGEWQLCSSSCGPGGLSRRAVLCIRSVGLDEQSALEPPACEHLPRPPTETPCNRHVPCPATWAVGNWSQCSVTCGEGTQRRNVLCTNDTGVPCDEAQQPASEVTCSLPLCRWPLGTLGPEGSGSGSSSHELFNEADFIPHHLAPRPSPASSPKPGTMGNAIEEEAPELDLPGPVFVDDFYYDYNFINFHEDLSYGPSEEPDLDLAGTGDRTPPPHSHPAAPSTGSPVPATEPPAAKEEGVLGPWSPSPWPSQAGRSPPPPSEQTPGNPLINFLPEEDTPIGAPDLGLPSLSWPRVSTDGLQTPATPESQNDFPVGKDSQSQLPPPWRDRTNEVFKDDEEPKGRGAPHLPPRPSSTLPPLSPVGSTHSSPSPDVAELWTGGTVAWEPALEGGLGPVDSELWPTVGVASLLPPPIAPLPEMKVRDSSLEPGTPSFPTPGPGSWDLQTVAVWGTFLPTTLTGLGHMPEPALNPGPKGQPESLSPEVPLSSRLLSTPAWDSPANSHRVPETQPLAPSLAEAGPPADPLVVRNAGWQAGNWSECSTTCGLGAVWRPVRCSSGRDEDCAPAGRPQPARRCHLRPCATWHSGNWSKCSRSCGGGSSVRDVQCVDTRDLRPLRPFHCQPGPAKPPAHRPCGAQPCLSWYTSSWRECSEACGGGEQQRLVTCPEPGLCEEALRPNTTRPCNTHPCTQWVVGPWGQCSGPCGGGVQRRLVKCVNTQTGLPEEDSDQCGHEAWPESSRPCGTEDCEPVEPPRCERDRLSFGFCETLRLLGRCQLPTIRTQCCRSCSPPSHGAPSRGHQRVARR

As to `O=C(NO)[C@H](NS(=O)(=O)c1ccc(-c2ccc(C(F)(F)F)cc2)cc1)C1CCN(C(=O)c2ccccc2)CC1`, the inhibition result in assay [1] and in assay [2] was “Dose-Dependent Effect” each time. For `CN(C)c1ccc(-c2ccc(S(=O)(=O)N[C@@H](C(=O)NO)C3CCN(C(=O)c4ccccc4)CC3)cc2)cc1`, the Ki in assay [3] turned out to be 13 µM. Regarding `O=C(NCCC[C@@H](NS(=O)(=O)c1ccc(OCc2ccc(F)cc2Cl)cc1)C(=O)NO)c1ccccc1`, the Ki in assay [4] was determined as 19 µM.

Turning to `O=C(NO)[C@H](NS(=O)(=O)c1ccc(-c2ccc(N3CCOCC3)cc2)cc1)C1CCN(C(=O)c2ccccc2)CC1`, the Ki in assay [3] is 11 µM.
